Assay results from patent US10005844B2, “Polynucleotides encoding anti-Notch1 NRR antibody polypeptides” (Genentech, Inc., priority 2007, dated 2018).

How the values were obtained:
Assay type in all cases: cell-based
OVCAR-3 = assay: CellTiter-Glo Luminescent Cell Viability Assay, OVCAR-3; conditions: ovarian cancer cell line, FIG. 17
Text: (§1) The effects of anti-Notch1 NRR and the gamma secretase inhibitors DAPT and “Compound E” (CmpE) on a panel of cancer cell lines were examined. […] This assay determines the number of viable cells in culture based on quantitation of ATP present, which is an indication of metabolically active cells. Luminescence is quantified as “relative luminescent units” in FIG. 17 (y-axis).

Mouse C2C12 myoblasts = assay: C2C12 myoblast differentiation assay; conditions: Antibody A 200 ng/ml, Compound E 1 uM, four days, FIG. 9 and 10
Experimental: Mouse C2C12 myoblasts differentiate into myotubes when treated with differentiation medium. Co-culture with Jagged1 ligand-expressing cells inhibits differentiation by stimulating Notch signaling.
In particular, mouse C2C12 myoblast cells were plated in a 24-well tissue culture dish with a sterile round, 10 mm cover slip in the bottom at 2.5×10^4 cells per ml, using 1 ml per well. Cells were allowed to attach and grow for 22 hours in growth medium (DMEM with 10% FBS) at 37° C., 5% CO2. The growth medium was then aspirated and differentiation medium (DM) was added (DMEM with 6% Horse Serum). Cells were treated with: A. DM alone; B. DM with 3T3-J1 cells; C. […] Cells were incubated at 37° C., 5% CO2 under these conditions for four days. Cover slips were retrieved, and cells were fixed with 4% paraformaldehyde and permeablized with 0.2% Triton X-100 in PBS. Cells were then blocked with 10% FBS in PBS. An antibody recognizing Myosin Heavy Chain (Millipore, Anti-Myosin HC, clone A4.1025 ascites) and a goat anti-mouse IgG (H+L) secondary antibody conjugated to Alexa® 488 (Molecular Probes) was used to stain the differentiated myotubes. DAPI was used to counter-stain the nuclei. Images of three different fields were taken for each condition. Metamorph software (Molecular Devices) was used to count the number of nuclei and the area of Alexa® 488 stain. […]

MT-3 = assay: CellTiter-Glo Luminescent Cell Viability Assay, MT-3; conditions: breast carcinoma line, FIG. 17
Text: as §1

Row | Compound | Cell viability (ATP levels), OVCAR-3 (OVCAR-3) | Differentiation of C2C12 myoblasts blocked by Jagged1 co-culture (Mouse C2C12 myoblasts) | Cell viability (ATP levels), MT-3 (MT-3)
1 | C[C@H](NC(=O)Cc1cc(F)cc(F)c1)C(=O)N[C@H]1N=C(c2ccccc2)c2ccccc2N(C)C1=O [Compound E] | reduced ATP levels | restored differentiation | reduced ATP levels
2 | C[C@H](NC(=O)Cc1cc(F)cc(F)c1)C(=O)N[C@H](C(=O)OC(C)(C)C)c1ccccc1 [DAPT, N—[N-(3,5-difluorophenacetyl)-L-alanyl]-S-phenylglycine t-butyl ester] | reduced ATP levels | – | reduced ATP levels
